system: MDCK (Madin-Darby canine kidney) cells; test: Incubation of MDCK cells with fluorescently labeled peptides, confocal microscopy; format: cell-based; settings: fluorescein-labelled peptide, 1 h, MitoTracker Orange
Description: MDCK cells are cultured in Dulbecco's Modified Eagle Medium (DMEM) containing 5% (v/v) fetal bovine serum (FBS) and 1% (v/v) penicillin/streptomycin at 37° C. in a humidified atmosphere containing 5% CO2. The cells grown on 10-cm dishes are detached with trypsin and ethylenediaminetetraacetic acid (EDTA) and washed with DMEM/FBS. Cells used for microscopy are prepared by adding 100 000 cells to the apical chamber of 12-mm diameter Transwell™ permeable supports (Costar, Cambridge, Mass.). Cells are cultured in DMEM/FBS for 3-5 days.
MDCK cells cultured in apical chambers of 12-mm diameter Transwell™ permeable supports are incubated with 80 μl fluoresceinated mTPs or cTPs (100 μM) and 320 μl of Dulbecco's Modified Eagle Medium (DMEM) for 1 h in the dark at room temperature, followed by washing with 400 μl of DMEM.
Cells are observed using a confocal microscope (Nikon C1, Nikon Canada Inc. or Olympus FluoView™) to analyse the localization of the fluoresceinated mTPs or cTPs (excitation wavelength 490 nm/emission wavelength 520 nm). Chloroplasts are identified by autofluorescence. The fluorescent dye MitoTracker® Orange CM-H2TMRos (M7511, Invitrogen) is used to stain mitochondria (excitation wavelength 554 nm/emission wavelength 576 nm). Fluorescence emissions are collected in z-confocal planes of […] and analyzed using EZ-C1 Software Version 3.6 (Nikon) or Olympus FluoView™ software version 2.0b (Olympus).

Sequence | Mitochondrial targeting
MAAWMRSLFSPLKKLWIRMH (Zea mays) [mTP2] | non-specific mitochondrial localization
MWWRRSRTNSLRYT (listed as Arabidopsis thaliana) [mTP4] | non-specific mitochondrial localization
MLFRLRRSVRLRGLLA (listed as Arabidopsis thaliana) [mTP5] | Specific mitochondrial targeting
MFSYLPRYPLRAASARALVRATRPSYRSALLRYQ (listed as Triticum aestivum) [mTP1] | Specific mitochondrial targeting
MKLLWRLILSRKW (listed as Arabidopsis thaliana) [mTP3] | Specific mitochondrial targeting

system: proplastids of triticale microspores; test: qRT-PCR of gfp mRNA, microspores transfected with pWCaadA16GFP; format: cell-based; settings: gfp reporter construct
Text: FIG. 18 is a plot showing the level of expression (fold increase, average of 4 replicates) of GFP in triticale microspores transfected with the pWCaadA16GFP plasmid in the presence of cTP1 (SEQ ID NO: 6), cTP2 (SEQ ID NO: 7), cTP3 (SEQ ID NO: 8), cTP4 (SEQ ID NO: 9) or cTP5 (SEQ ID NO: 10) compared to the level of expression (fold increase) of the internal control elongation factor 1a (EF1a), as measured by quantitative real time PCR of mRNA levels;
Wheat chloroplast aadA16GFP reporter plasmid (pWCaadA16GFP, FIG. 12) is a 4212 base pair wheat specific plastid transformation vector, which targets insertions into the tml-tmA inverted repeat regions of the Triticum aestivum plastid genome at nucleotides 92850-93727 and 93794-94671 (GenBank accession No. AB042240.3). A multiple cloning site is introduced following the tml target insertion sequence. The selection marker gene is an organelle codon specific aad-gfp fusion gene, which facilitates a dual selection method of spectinomycin resistance through an aadA derivative and visual detection by GFP fluorescence (GenBank accession No. ABX39486; Khan and Maliga, Nat. Biotechnol. (1999 September) 17(9): 910-5). The selection marker gene is driven by the Triticum aestivum plastid genome promoter (psbA) at nucleotides 1282-1153 (GenBank accession No. AB042240.3). The aad-gfp fusion gene is terminated with the rice psbA terminator sequence derived from chloroplast transformation vector pVSR326 nucleotides 4014-4387 (GenBank accession No. AF527485.1).
The dsDNA construct (pWMaadA16GFP for mitochondrial expression or pWCaadA16GFP for expression in chloroplasts) is combined with the mTP (for mitochondrial expression) or cTP (for expression in chloroplasts) in the amounts used in the protoplast transformation experiments described above in a final volume of 100 μl of NBP-99 solution. The mixture is incubated for 10 minutes at room temperature, then incubated with isolated triticale microspores (500 μl, 10^6 microspores/ml, prepared as described in Example 2) for 1 h in the dark at room temperature. NBP-99 solution (500 μl) is added and the mixture is incubated in the dark for 24 h. The cells are imaged using confocal microscopy, as described in Example 2, using MitoTracker® Orange staining to visualize mitochondria.
Microspores are disrupted using a cleaned ceramic bead and aggressive shaking as the tissue is thawing. RLT buffer/B-Me (450 μl) is added and the sample is vortexed. The sample is heated at 55° C. for 1 minute and vortexed again. RNA is extracted using an RNeasy™ Plant Mini Kit (Qiagen), incorporating on-column DNase I digestion into the protocol. The final elution volume is 40 μl. RNA is assessed using both agarose gel […] (to ensure RNA is intact) and spectrophotometry (for quantification).
cDNA is generated using a First Strand Synthesis kit (Invitrogen). RNA (1 μg) is added to each sample and the manufacturer's protocol for synthesis followed, with the exception that the volume of the reaction mixture is increased from 20 μl to 30 μl. A negRT sample containing all reagents but no RNA is included in the cDNA synthesis as a negative control.
Standard curves are generated for both elongation factor 1a (EF1a) (internal control) and green fluorescent protein (GFP) (test) genes. […]
Real time PCR reactions are performed using QuantiTect™ SYBR™ Green PCR Master Mix (Qiagen) in a 20 μl reaction volume. […]

Sequence | GFP expression by proplastids confirmed by qRT-PCR
MSSPPPLFTSCLPASSPSIRRDSTSGSVTSPLR (listed as Arabidopsis thaliana) [cTP5] | GFP is expressed
MQTLTASSSVSSIQRHRPHPAGRRSSSVTFS (listed as Triticum aestivum) [cTP2] | GFP is expressed
MGGCVSTPKSCVGAKLR (listed as Arabidopsis thaliana) [cTP1] | GFP is expressed
MAALIPAIASLPRAQVEKPHPMPVSTRPGLVS (listed as Triticum aestivum) [cTP4] | GFP is expressed
